Assay results published in the supplement of paper PMC10307832.

What was measured:
Assay in all cases: relative viability (nuclei count vs DMSO), 5 days (fraction); higher = more cells survive
HCC-78 = tested on: HCC-78
Summary of the method: (§1)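 A single step with final 0.05% Triton X-100, 1% formaldehyde and 1 ug/ml Hoechst fixed the cells and stained nuclei 5 days after treatment. Lung cancer cell lines in 1536-well plates had been treated by pin tool the day after seeding with one drug alone or a fixed anchor-drug dose plus five library-drug doses (not always all listed) in √10 steps, and nuclei were counted on 4× images. Relative viability is the ratio of nuclei in treated wells to nuclei in vehicle wells, taken as the median of duplicate plates.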

NCI-H1650 = tested on: NCI-H1650
Summary of the method: as §1

NCI-H3122 = tested on: NCI-H3122
Summary of the method: as §1

RERF-LC-KJ = tested on: RERF-LC-KJ
Summary of the method: as §1

EKVX = tested on: EKVX
Summary of the method: as §1

NCI-H1734 = tested on: NCI-H1734
Summary of the method: as §1

HCC-15 = tested on: HCC-15
Summary of the method: as §1

HARA = tested on: HARA
Summary of the method: as §1

SK-LU-1 = tested on: SK-LU-1
Summary of the method: as §1

201T = tested on: 201T
Summary of the method: as §1

NCI-H1944 = tested on: NCI-H1944
Summary of the method: as §1

BEN = tested on: BEN
Summary of the method: as §1

HCC-366 = tested on: HCC-366
Summary of the method: as §1

LC-2-ad = tested on: LC-2-ad
Summary of the method: as §1

HCC-827 = tested on: HCC-827
Summary of the method: as §1

NCI-H1993 = tested on: NCI-H1993
Summary of the method: as §1

NCI-H1975 = tested on: NCI-H1975
Summary of the method: as §1

LU99A = tested on: LU99A
Summary of the method: as §1

NCI-H596 = tested on: NCI-H596
Summary of the method: as §1

COR-L23 = tested on: COR-L23
Summary of the method: as §1

NCI-H1755 = tested on: NCI-H1755
Summary of the method: as §1

COR-L 105 = tested on: COR-L 105
Summary of the method: as §1

LXF-289 = tested on: LXF-289
Summary of the method: as §1

Work on O=C(O)CCCCC(CCSCc1ccccc1)SCc1ccccc1 (centres undefined) [CPI-613] + N=C(N)NC(=N)NCCc1ccccc1 [Phenformin] (partner 250 µM) yielded a relative viability (HCC-78; first compound 5 µM) of 0.712, a relative viability (HCC-78; first compound 15.81 µM) of 0.647 and a relative viability (HCC-78; first compound 50 µM) of 0.787. It also gave a relative viability (HCC-78; first compound 158.11 µM) of 0.591, a relative viability (HCC-78; first compound 500 µM) of 0.651 and a relative viability (NCI-H1650; first compound 5 µM) of 0.403. It also gave a relative viability (NCI-H1650; first compound 15.81 µM) of 0.408, a relative viability (NCI-H1650; first compound 50 µM) of 0.366 and a relative viability (NCI-H1650; first compound 158.11 µM) of 0.136. It also gave a relative viability (NCI-H1650; first compound 500 µM) of 0.0086, a relative viability (NCI-H3122; first compound 5 µM) of 0.387 and a relative viability (NCI-H3122; first compound 15.81 µM) of 0.364. It also gave a relative viability (NCI-H3122; first compound 50 µM) of 0.339, a relative viability (NCI-H3122; first compound 158.11 µM) of 0.17 and a relative viability (NCI-H3122; first compound 500 µM) of 0.0221. The relative viability (RERF-LC-KJ; first compound 5 µM) was 0.42, the relative viability (RERF-LC-KJ; first compound 15.81 µM) was 0.409 and the relative viability (RERF-LC-KJ; first compound 50 µM) was 0.406. It also gave a relative viability (RERF-LC-KJ; first compound 158.11 µM) of 0.134, a relative viability (RERF-LC-KJ; first compound 500 µM) of 0.0945 and a relative viability (EKVX; first compound 5 µM) of 0.247. It also gave a relative viability (EKVX; first compound 15.81 µM) of 0.223, a relative viability (EKVX; first compound 50 µM) of 0.212 and a relative viability (EKVX; first compound 158.11 µM) of 0.164. The relative viability (EKVX; first compound 500 µM) was 0.213, the relative viability (NCI-H1734; first compound 5 µM) was 0.389 and the relative viability (NCI-H1734; first compound 15.81 µM) was 0.322. The relative viability (NCI-H1734; first compound 50 µM) was 0.348, the relative viability (NCI-H1734; first compound 158.11 µM) was 0.219 and the relative viability (NCI-H1734; first compound 500 µM) was 0.0834. The relative viability (HCC-15; first compound 5 µM) was 0.435, the relative viability (HCC-15; first compound 15.81 µM) was 0.439 and the relative viability (HCC-15; first compound 50 µM) was 0.414. It also gave a relative viability (HCC-15; first compound 158.11 µM) of 0.178, a relative viability (HCC-15; first compound 500 µM) of 0.0244 and a relative viability (HARA; first compound 15.81 µM) of 0.394. It also gave a relative viability (HARA; first compound 50 µM) of 0.444, a relative viability (HARA; first compound 158.11 µM) of 0.267 and a relative viability (HARA; first compound 500 µM) of 0.0155. It also gave a relative viability (SK-LU-1; first compound 5 µM) of 0.547, a relative viability (SK-LU-1; first compound 15.81 µM) of 0.479 and a relative viability (SK-LU-1; first compound 50 µM) of 0.642. The relative viability (SK-LU-1; first compound 158.11 µM) was 0.248, the relative viability (SK-LU-1; first compound 500 µM) was 0.0581 and the relative viability (201T; first compound 5 µM) was 0.514. For the same compound, the relative viability (201T; first compound 15.81 µM) was 0.432, the relative viability (201T; first compound 50 µM) was 0.415 and the relative viability (201T; first compound 158.11 µM) was 0.36. It also gave a relative viability (201T; first compound 500 µM) of 0.0726, a relative viability (NCI-H1944; first compound 5 µM) of 0.194 and a relative viability (NCI-H1944; first compound 15.81 µM) of 0.185. For the same compound, the relative viability (NCI-H1944; first compound 50 µM) was 0.187, the relative viability (NCI-H1944; first compound 158.11 µM) was 0.14 and the relative viability (NCI-H1944; first compound 500 µM) was 0.0441. It also gave a relative viability (BEN; first compound 5 µM) of 0.242, a relative viability (BEN; first compound 15.81 µM) of 0.251 and a relative viability (BEN; first compound 50 µM) of 0.255. It also gave a relative viability (BEN; first compound 158.11 µM) of 0.25, a relative viability (BEN; first compound 500 µM) of 0.215 and a relative viability (HCC-366; first compound 5 µM) of 0.554. It also gave a relative viability (HCC-366; first compound 15.81 µM) of 0.567, a relative viability (HCC-366; first compound 50 µM) of 0.651 and a relative viability (HCC-366; first compound 158.11 µM) of 0.239. The relative viability (HCC-366; first compound 500 µM) was 0.0045, the relative viability (LC-2-ad; first compound 5 µM) was 0.569 and the relative viability (LC-2-ad; first compound 15.81 µM) was 0.558. For the same compound, the relative viability (LC-2-ad; first compound 50 µM) was 0.567, the relative viability (LC-2-ad; first compound 158.11 µM) was 0.396 and the relative viability (LC-2-ad; first compound 500 µM) was 0.0712. It also gave a relative viability (HCC-827; first compound 5 µM) of 0.361, a relative viability (HCC-827; first compound 15.81 µM) of 0.374 and a relative viability (HCC-827; first compound 50 µM) of 0.41. For the same compound, the relative viability (HCC-827; first compound 158.11 µM) was 0.318, the relative viability (HCC-827; first compound 500 µM) was 0.185 and the relative viability (NCI-H1993; first compound 5 µM) was 0.492. It also gave a relative viability (NCI-H1993; first compound 15.81 µM) of 0.532, a relative viability (NCI-H1993; first compound 50 µM) of 0.492 and a relative viability (NCI-H1993; first compound 158.11 µM) of 0.473. For the same compound, the relative viability (NCI-H1993; first compound 500 µM) was 0.42, the relative viability (NCI-H1975; first compound 5 µM) was 0.397 and the relative viability (NCI-H1975; first compound 15.81 µM) was 0.404. It also gave a relative viability (NCI-H1975; first compound 50 µM) of 0.388, a relative viability (NCI-H1975; first compound 158.11 µM) of 0.291 and a relative viability (NCI-H1975; first compound 500 µM) of 0.0692. For the same compound, the relative viability (LU99A; first compound 5 µM) was 0.801, the relative viability (LU99A; first compound 15.81 µM) was 0.793 and the relative viability (LU99A; first compound 50 µM) was 0.823. For the same compound, the relative viability (LU99A; first compound 158.11 µM) was 0.733, the relative viability (LU99A; first compound 500 µM) was 0.0986 and the relative viability (NCI-H596; first compound 5 µM) was 0.64. The relative viability (NCI-H596; first compound 15.81 µM) was 0.672, the relative viability (NCI-H596; first compound 50 µM) was 0.812 and the relative viability (NCI-H596; first compound 158.11 µM) was 0.668. The relative viability (NCI-H596; first compound 500 µM) was 0.0197, the relative viability (COR-L23; first compound 5 µM) was 0.438 and the relative viability (COR-L23; first compound 15.81 µM) was 0.393. The relative viability (COR-L23; first compound 50 µM) was 0.475, the relative viability (COR-L23; first compound 158.11 µM) was 0.199 and the relative viability (COR-L23; first compound 500 µM) was 0.0157. The relative viability (NCI-H1755; first compound 5 µM) was 0.608, the relative viability (NCI-H1755; first compound 15.81 µM) was 0.642 and the relative viability (NCI-H1755; first compound 50 µM) was 0.558. For the same compound, the relative viability (NCI-H1755; first compound 158.11 µM) was 0.533, the relative viability (NCI-H1755; first compound 500 µM) was 0.183 and the relative viability (COR-L 105; first compound 5 µM) was 0.428. For the same compound, the relative viability (COR-L 105; first compound 15.81 µM) was 0.405, the relative viability (COR-L 105; first compound 50 µM) was 0.443 and the relative viability (COR-L 105; first compound 158.11 µM) was 0.279. The relative viability (COR-L 105; first compound 500 µM) was 0.112, the relative viability (LXF-289; first compound 5 µM) was 0.516 and the relative viability (LXF-289; first compound 15.81 µM) was 0.504. It also gave a relative viability (LXF-289; first compound 50 µM) of 0.511, a relative viability (LXF-289; first compound 158.11 µM) of 0.443 and a relative viability (LXF-289; first compound 500 µM) of 0.0481.
